Measured values taken from PubChem BioAssay (NCI).
Several values for one entry are separate records, joined by “and”; a condition that tells them apart may be missing. Identical values can stand only once.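 How tested: cells in 96-well plates exposed to compound for 48 hours at five concentrations. GI50 = concentration required for 50% inhibition of growth. The concentration for full growth arrest is given as TGI.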

Tests used:
Assay in all cases: NCI tumour cell line growth inhibition, 48 h
[1] = system: SK-OV-3 ovarian
[2] = system: NCI-H522 lung
[3] = system: A549 NSCLC
[4] = system: CCRF-CEM leukemia
[5] = system: RXF 393 renal
[6] = system: NCI-H23 lung
[7] = system: SK-MEL-5 melanoma
[8] = system: OVCAR-4 ovarian
[9] = system: EKVX NSCLC
[10] = system: MOLT-4 leukemia
[11] = system: T-47D breast
[12] = system: SF-539 CNS
[13] = system: UO-31 renal
[14] = system: CAKI-1 renal
[15] = system: KM12 colon
[16] = system: TK-10 renal
[17] = system: MDA-MB-231 breast
[18] = system: HCC-2998 colon
[19] = system: SNB-19 CNS
[20] = system: 786-0 renal
[21] = system: UACC-62 melanoma
[22] = system: SN12C renal
[23] = system: OVCAR-3 ovarian
[24] = system: MDA-MB-435
[25] = system: OVCAR-5 ovarian
[26] = system: HCT-116 colon
[27] = system: M14 melanoma
[28] = system: PC-3 prostate
[29] = system: NCI/ADR-RES ovarian
[30] = system: ACHN renal
[31] = system: RPMI-8226 leukemia
[32] = system: HOP-62 NSCLC
[33] = system: LOX IMVI melanoma
[34] = system: MDA-MB-468 breast
[35] = system: NCI-H226 lung
[36] = system: IGROV1 ovarian
[37] = system: SNB-75 CNS
[38] = system: HOP-92 NSCLC
[39] = system: HCT-15 colon
[40] = system: OVCAR-8 ovarian
[41] = system: A498 renal
[42] = system: UACC-257 melanoma
[43] = system: NCI-H460 lung
[44] = system: HS 578T breast
[45] = system: DU-145 prostate
[46] = system: SK-MEL-2 melanoma
[47] = system: U251 CNS
[48] = system: MALME-3M melanoma
[49] = system: SF-295 CNS
[50] = system: SF-268 CNS
[51] = system: SK-MEL-28 melanoma
[52] = system: BT-549 breast

Compound: COc1ccc2[nH]cc(-c3cc(N)n4nc(-c5c[nH]c6ccccc56)cc4n3)c2c1
- GI50 [1]: 15 µM
- TGI [1]: 33.1 µM
- GI50 [2]: 1.64 µM
- TGI [2]: 3.51 µM
- GI50 [3]: 3.14 µM
- TGI [3]: 13.9 µM
- GI50 [4]: 2.6 µM
- TGI [4]: 6.46 µM
- GI50 [5]: 1.38 µM
- TGI [5]: 3.48 µM
- GI50 [6]: 3.15 µM
- TGI [6]: 10.2 µM
- GI50 [7]: 1.7 µM
- TGI [7]: 3.07 µM
- GI50 [8]: 5.06 µM
- TGI [8]: 17.8 µM
- GI50 [9]: 3.93 µM
- TGI [9]: 15.9 µM
- GI50 [10]: 2.25 µM
- TGI [10]: 6.05 µM
- GI50 [11]: 3.05 µM
- TGI [11]: 26.3 µM
- GI50 [12]: 1.68 µM
- TGI [12]: 3.05 µM
- GI50 [13]: 1.86 µM
- TGI [13]: 4.65 µM
- GI50 [14]: 2.32 µM
- TGI [14]: 6.44 µM
- GI50 [15]: 2.21 µM
- TGI [15]: 5.01 µM
- GI50 [16]: 3.53 µM
- TGI [16]: 12.1 µM
- GI50 [17]: 1.91 µM
- TGI [17]: 3.58 µM
- GI50 [18]: 1.77 µM
- TGI [18]: 3.38 µM
- GI50 [19]: 4.25 µM
- TGI [19]: 14.8 µM
- GI50 [20]: 1.57 µM
- TGI [20]: 3 µM
- GI50 [21]: 1.73 µM
- TGI [21]: 3.16 µM
- GI50 [22]: 10.1 µM
- TGI [22]: 22.8 µM
- GI50 [23]: 3.27 µM
- TGI [23]: 16.6 µM
- GI50 [24]: 2.04 µM
- TGI [24]: 4.11 µM
- GI50 [25]: 3.86 µM
- TGI [25]: 13.4 µM
- GI50 [26]: 1.75 µM
- TGI [26]: 3.12 µM
- GI50 [27]: 1.79 µM
- TGI [27]: 3.32 µM
- GI50 [28]: 3.33 µM
- TGI [28]: 14.8 µM
- GI50 [29]: 5.84 µM
- TGI [29]: 24 µM
- GI50 [30]: 2.62 µM
- TGI [30]: 6.99 µM
- GI50 [31]: 2.37 µM
- TGI [31]: 5.51 µM
- GI50 [32]: 3.14 µM
- TGI [32]: 7.88 µM
- GI50 [33]: 1.64 µM
- TGI [33]: 3.01 µM
- GI50 [34]: 1.66 µM
- TGI [34]: 3.12 µM
- GI50 [35]: 11.5 µM
- TGI [35]: 28 µM
- GI50 [36]: 4.52 µM
- TGI [36]: 17 µM
- GI50 [37]: 11.2 µM
- TGI [37]: 29.2 µM
- GI50 [38]: 3.04 µM
- TGI [38]: 11.9 µM
- GI50 [39]: 1.66 µM
- TGI [39]: 3.33 µM
- GI50 [40]: 4.12 µM
- TGI [40]: 33.3 µM
- GI50 [41]: 11.4 µM
- TGI [41]: 24.4 µM
- GI50 [42]: 1.73 µM
- TGI [42]: 3.21 µM
- GI50 [43]: 2.74 µM
- TGI [43]: 7.59 µM
- GI50 [44]: 6.69 µM
- TGI [44]: > 100 µM
- GI50 [45]: 5.19 µM
- TGI [45]: 19.3 µM
- GI50 [46]: 1.83 µM
- TGI [46]: 3.8 µM
- GI50 [47]: 2.08 µM
- TGI [47]: 4.67 µM
- GI50 [48]: 1.7 µM
- TGI [48]: 3.07 µM
- GI50 [49]: 1.83 µM
- TGI [49]: 3.55 µM
- GI50 [50]: 9.09 µM
- TGI [50]: 37.3 µM
- GI50 [51]: 1.72 µM
- TGI [51]: 3.1 µM
- GI50 [52]: 13.3 µM
- TGI [52]: 26.1 µM

Compound: COc1cc(C2c3cc4c(cc3OC(NNC(N)=O)C2C)OCO4)cc(OC)c1O (configuration not stated)
- GI50 [34]: 7.5 µM
- TGI [34]: > 100 µM

Compound: COc1ccc(C(=O)/C=C/c2c(Cl)c3c(c(OC)c2Cl)OCC(=O)N3)cc1
- GI50 [34]: 1.69 µM
- TGI [34]: 3.7 µM

Compound: COc1ccc(/C=C2\CCCC3=C2NC(N)=NC3c2ccc(OC)c(OC)c2)cc1OC (configuration not stated)
- GI50 [34]: 0.921 µM
- TGI [34]: 8.84 µM

Compound: CCCCN(CCCC)c1ccc(C(=N)c2ccc(N(CCCC)CCCC)cc2)cc1
- GI50 [34]: 0.189 µM
- TGI [34]: 0.748 µM

Compound: CN(C)c1ccc2nc3ccc(=[N+](C)C)cc-3sc2c1
- GI50 [34]: 0.233 µM and 0.469 µM
- TGI [34]: 1.01 µM and 3.63 µM

Compound: O=C(Nc1cccc(NC(=O)Nc2cc(C(F)(F)F)ccc2Cl)c1)Nc1cc(C(F)(F)F)ccc1Cl
- GI50 [34]: 1.1 µM
- TGI [34]: 7.24 µM

Compound: CC[C@H](CO)Nc1nc(NCc2ccccc2)n2ncc(C(C)C)c2n1
- GI50 [34]: 1.88 µM
- TGI [34]: 5.19 µM

Compound: CCOc1cc2ncc(C#N)c(Nc3ccc(OCc4ccccn4)c(Cl)c3)c2cc1NC(=O)/C=C/CN(C)C
- GI50 [34]: < 0.01 µM and 0.00501 µM
- TGI [34]: 0.0415 µM and 0.0479 µM

Compound: CS(=O)(=O)c1nccc(-c2c(-c3ccc(F)c(OCc4ccc(F)cc4)c3)nc3sccn23)n1
- GI50 [34]: 2.43 µM
- TGI [34]: 7.03 µM

Compound: O=C(Nc1ccc(Cl)c(Cl)c1)O/N=C\c1c(Cl)ccc([N+](=O)[O-])c1Cl
- GI50 [34]: 1.08 µM
- TGI [34]: 2.72 µM

Compound: CC(C)(O)CC(=O)NCCn1ccc2ncnc(Nc3ccc(Oc4cccc(C(F)(F)F)c4)c(Cl)c3)c21
- GI50 [34]: 0.272 µM
- TGI [34]: 4.06 µM

Compound: Nc1nc(Nc2ccc(C3CCC(N4CCOCC4)CC3)cc2)nn1-c1ccccn1 (configuration not stated)
- GI50 [34]: 11.2 µM
- TGI [34]: > 100 µM

Compound: Nc1[nH]nc2nc(-c3cccs3)cc(C(F)(F)F)c12
- GI50 [34]: > 17.1 µM
- TGI [34]: > 25 µM

Compound: Cc1ccc(S(=O)(=O)Nc2cccc3[nH]c(C(F)(F)F)nc23)cc1
- GI50 [34]: 0.536 µM
- TGI [34]: 26.1 µM
